System: adenylate cyclase
Conditions: adenylate cyclase assay
Excerpt: In the adenylate cyclase assay of Caporale, L. et al, Peptides: Structure and Function, Proc. 9th Am. Pept. Symp. p.

([Tyr³⁴,Cys³⁹]PTH(21-39)NH₂)₂
increase in antagonist potency over its monomeric derivative (dimer versus its monomeric derivative): 25 fold
IC50 (read-out: IC₅₀ (antagonist potency), antagonism of PTH): 20 µM
